In one data set the target is pG-IB sPLA2 (Sus scrofa, UniProt P00592). The data set is described as follows: Inhibition of sPLA2 activity, colorimetric lecithin/red phenol assay, group IB. The data set is classed as biochemical, porcine.
The target in the next data set is T1, hG-IIA sPLA2 (Homo sapiens, UniProt P14555).
T1 sequence (P14555 21-144): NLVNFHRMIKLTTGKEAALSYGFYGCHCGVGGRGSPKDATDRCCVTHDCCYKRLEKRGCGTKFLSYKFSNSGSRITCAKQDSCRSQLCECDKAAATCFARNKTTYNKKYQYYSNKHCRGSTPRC
The data set is described as follows: Inhibition of sPLA2 activity, colorimetric lecithin/red phenol assay, group IIA. Type of data set: biochemical.

The target in a further data set is T2, hG-V sPLA2 (Homo sapiens, UniProt P39877).
T2 sequence (P39877 21-138): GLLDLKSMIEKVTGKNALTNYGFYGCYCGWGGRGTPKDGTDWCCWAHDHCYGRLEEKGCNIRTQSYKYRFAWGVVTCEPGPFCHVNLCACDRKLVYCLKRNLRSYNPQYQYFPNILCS
The data set is described as follows: Inhibition of sPLA2 activity, colorimetric lecithin/red phenol assay, group V. The data set is classed as biochemical. The protocol: (§1) The test of inhibitory activity of sPLA2 was performed as described by Lobo de Araujo and Radvanyi[41]. Briefly, the substrate consisted of 3.5 mM lecithin in a mixture of 3 mM NaTDC “Sodium taurodeoxycholate”, 100 mM NaCl, 10 mM CaCl2, and 0.055 mM red phenol as colorimetric indicator in 100 ml H2O. The pH of the reaction mixture was adjusted to 7.6. The human group IB (pG-IB), IIA (hG-IIA), V (hG-V), X (hG-X), and XII (hG-XII) sPLA2 were solubilised in 10% acetonitrile at a concentration of 0.02 μg/μL. A volume of 10 μL of these PLA2 solutions was incubated with 10 μL of each compound for 20 min at room temperature. Then, 1 ml of the PLA2 substrate was added, and the kinetic of hydrolysis was followed during 5 min by reading the optical density at 558 nm. The inhibition percentage was calculated by comparison with a control experiment (absence of compound).
(§2) In order to evaluate the potential anti-inflammatory activity of the 12 studied compounds, we tested their inhibitory effects using several human sPLA2 isozymes, […], hG-V, hG-X, and hG-XII, involved in the inflammatory process and porcine pG-IB sPLA2 which hydrolyses dietary phospholipids.

A further data set deals with T3, hG-X sPLA2 (Homo sapiens, UniProt O15496).
T3 sequence (O15496 43-165): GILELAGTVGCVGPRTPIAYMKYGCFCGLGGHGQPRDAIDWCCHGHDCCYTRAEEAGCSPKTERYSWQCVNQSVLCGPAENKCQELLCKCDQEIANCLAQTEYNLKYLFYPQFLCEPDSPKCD
The data set is described as follows: Inhibition of sPLA2 activity, colorimetric lecithin/red phenol assay, group X. The data set is classed as biochemical. As to the method:
as §1, §2

Another data set addresses T4, hG-XIIA sPLA2 (Homo sapiens, UniProt Q9BZM1).
T4 sequence (Q9BZM1 23-189): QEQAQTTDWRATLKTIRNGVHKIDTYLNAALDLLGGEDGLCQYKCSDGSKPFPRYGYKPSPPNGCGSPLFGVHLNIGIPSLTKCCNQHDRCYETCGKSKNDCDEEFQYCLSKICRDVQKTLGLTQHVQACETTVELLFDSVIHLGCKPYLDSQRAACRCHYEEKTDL
The data set is described as follows: Inhibition of sPLA2 activity, colorimetric lecithin/red phenol assay, group XII. Type of data set: biochemical.

The mark [1] stands for this setting: ± standard deviation, duplicate, read-out: IC50 (µM) Against Phospholipase pG-IB.
Setting [2] is: ± standard deviation, duplicate, read-out: IC50 (µM) Against Phospholipase hG-IIA.
The mark [3] stands for this setting: ± standard deviation, duplicate, read-out: IC50 (µM) Against Phospholipase hG-V.
Where [4] appears, read: ± standard deviation, duplicate, read-out: IC50 (µM) Against Phospholipase hG-X.
Setting [5] is: ± standard deviation, duplicate, read-out: IC50 (µM) Against Phospholipase hG-XIIA.

Like-named read-outs stand apart in the source and are kept apart here.

Chain of pG-IB sPLA2 (P00592 23-146): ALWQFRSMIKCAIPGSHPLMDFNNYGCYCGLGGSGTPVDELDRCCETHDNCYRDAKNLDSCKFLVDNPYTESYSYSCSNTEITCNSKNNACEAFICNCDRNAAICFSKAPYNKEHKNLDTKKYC
Description for hG-IIA sPLA2: (§3) Briefly, the substrate consisted of 3.5 mM lecithin in a mixture of 3 mM NaTDC “Sodium taurodeoxycholate”, 100 mM NaCl, 10 mM CaCl2, and 0.055 mM red phenol as colorimetric indicator in 100 ml H2O. The pH of the reaction mixture was adjusted to 7.6. The human group IB (pG-IB), IIA (hG-IIA), V (hG-V), X (hG-X), and XII (hG-XII) sPLA2 were solubilised in 10% acetonitrile at a concentration of 0.02 μg/μL. A volume of 10 μL of these PLA2 solutions was incubated with 10 μL of each compound for 20 min at room temperature. […] The inhibition percentage was calculated by comparison with a control experiment (absence of compound).
Description for hG-XIIA sPLA2: as §3
Description for pG-IB sPLA2: as §3

By IC50 is commonly meant the concentration that inhibits the measured activity by half. Usually melting point stands for the temperature, or range, at which the solid turns liquid. The molecule `COc1cc(/C=N/Nc2nc3ccccc3[nH]c2=O)cc(OC)c1OC` [Compound 3a, (E)-3-(2-(3,4,5-trimethoxybenzylidene)hydrazinyl)quinoxalin-2(1H)-one] returned a melting point of 258 to 260 °C. Further, the IC50 on pG-IB sPLA2 (setting [1]) was 9.31 ± 0.36 µM. Also, the IC50 at hG-IIA sPLA2 (setting [2]) is 2.48 ± 0.28 µM. In addition, the half-inhibitory concentration (IC50) at hG-V sPLA2 (setting [3]) turned out to be 1.46 ± 0.47 µM. In addition, at hG-X sPLA2 (setting [4]), the half-inhibitory concentration (IC50) amounted to 1.26 ± 0.05 µM. For the same molecule, the IC50 on hG-XIIA sPLA2 (setting [5]) turned out to be 3.04 ± 0.67 µM.
In turn, `O=c1[nH]c2ccccc2nc1N/N=C/c1ccc([N+](=O)[O-])cc1[N+](=O)[O-]` [Compound 3b, (E)-3-(2-(2,4-dinitrobenzylidene)hydrazinyl)quinoxalin-2(1H)-one] registered a melting point of 283 to 285 °C. The molecule further displayed an IC50 at pG-IB sPLA2 of 10.7 ± 0.67 µM. This molecule returned an IC50 on hG-IIA sPLA2 of 5.36 ± 0.73 µM. The same molecule came in with an IC50 against hG-V sPLA2 of 1.12 ± 0.31 µM. Inhibition at hG-X sPLA2 was half-maximal at 2.54 ± 0.42 µM (IC50). The same molecule came in with a half-maximal inhibitory concentration (IC50) at hG-XIIA sPLA2 of 2.28 ± 0.08 µM.
As for `O=c1[nH]c2ccccc2nc1N/N=C/c1ccc(O)cc1O` [Compound 3c, (E)-3-(2-(2,4-dihydroxybenzylidene)hydrazinyl)quinoxalin-2(1H)-one], the melting point lay in the range of 292 to 294 °C. Further, the half-maximal inhibitory concentration (IC50) at pG-IB sPLA2 (setting [1]) was 13.3 ± 0.5 µM. For the same molecule, the IC50 on hG-IIA sPLA2 (setting [2]) turned out to be 3.71 ± 0.27 µM. The IC50 on hG-V sPLA2 (setting [3]) was determined as 9.45 ± 0.13 µM. Moreover, on hG-X sPLA2 (setting [4]), the IC50 was 12.5 ± 0.87 µM. Also, on hG-XIIA sPLA2 (setting [5]), the 50% inhibitory concentration (IC50) came to 6.75 ± 0.17 µM.
As to `O=c1[nH]c2ccccc2nc1N/N=C/c1ccc(Cl)c(Cl)c1` [Compound 3d, (E)-3-(2-(3,4-dichlorobenzylidene)hydrazinyl)quinoxalin-2(1H)-one], the melting point lay within 244 to 246 °C. In addition, on pG-IB sPLA2 (setting [1]), the IC50 was determined as 13.5 ± 1.02 µM. Further, the IC50 on hG-IIA sPLA2 (setting [2]) came to 4.5 ± 0.33 µM. Moreover, the concentration for half-maximal inhibition (IC50) on hG-V sPLA2 (setting [3]) amounted to 5.7 ± 0.27 µM. Moreover, the IC50 on hG-X sPLA2 (setting [4]) stood at 3 ± 0.63 µM. In addition, the half-inhibitory concentration (IC50) on hG-XIIA sPLA2 (setting [5]) was 10.5 ± 1.74 µM.
Regarding `O=c1[nH]c2ccccc2nc1N/N=C/c1cccs1` [Compound 3e, (E)-3-(2-(thiophen-2-ylmethylene)hydrazinyl)quinoxalin-2(1H)-one], the IC50 at pG-IB sPLA2 (setting [1]) was 10.7 ± 0.92 µM; at hG-IIA sPLA2 (setting [2]) it was 2.81 ± 0.33 µM; at hG-V sPLA2 (setting [3]), 6.28 ± 0.4 µM; at hG-X sPLA2 (setting [4]), 4.43 ± 1.03 µM; on hG-XIIA sPLA2 (setting [5]) it was 3.81 ± 0.99 µM.
Take `COc1cccc(/C=N/Nc2nc3ccccc3[nH]c2=O)c1` [Compound 3f, (E)-3-(2-(3-methoxybenzylidene)hydrazinyl)quinoxalin-2(1H)-one]: the concentration for half-maximal inhibition (IC50) was 12.4 ± 0.03 µM on pG-IB sPLA2 (setting [1]); 1.9 ± 0.3 µM at hG-IIA sPLA2 (setting [2]); 1.22 ± 0.3 µM at hG-V sPLA2 (setting [3]); 0.33 ± 0.06 µM on hG-X sPLA2 (setting [4]); 0.84 ± 0.07 µM on hG-XIIA sPLA2 (setting [5]).
Regarding `COc1cc(-c2nnc3c(=O)[nH]c4ccccc4n23)cc(OC)c1OC` [Compound 4a, 1-(3,4,5-Trimethoxyphenyl)-[1,2,4]triazolo[4,3-a]quinoxalin-4(5H)-one], the melting point lay within 227 to 229 °C. Further, the IC50 on pG-IB sPLA2 (setting [1]) was 14.2 ± 1.22 µM. Moreover, the IC50 on hG-IIA sPLA2 (setting [2]) worked out at 13.05 ± 0.05 µM. Moreover, the 50% inhibitory concentration (IC50) on hG-V sPLA2 (setting [3]) is 11.3 ± 0.08 µM. The IC50 on hG-X sPLA2 (setting [4]) was determined as 12.2 ± 0.47 µM. The IC50 at hG-XIIA sPLA2 (setting [5]) came to 13.2 ± 0.21 µM.
The molecule `O=c1[nH]c2ccccc2n2c(-c3ccc([N+](=O)[O-])cc3[N+](=O)[O-])nnc12` [Compound 4b, 1-(2,4-Dinitrophenyl)-[1,2,4]triazolo[4,3-a]quinoxalin-4(5H)-one] gave a melting point of over 300 °C. Also, half-maximal inhibition on pG-IB sPLA2 (IC50) required 13.6 ± 0.7 µM. For the same molecule, inhibition on hG-IIA sPLA2 was half-maximal at 0.76 ± 0.01 µM (IC50). This molecule also came in with an IC50 at hG-V sPLA2 of 1.53 ± 0.14 µM. In addition, at hG-X sPLA2, the IC50 came out at 1.05 ± 0.08 µM. Moreover, the IC50 against hG-XIIA sPLA2 worked out at 2.58 ± 0.43 µM.
Turning to `O=c1[nH]c2ccccc2n2c(-c3ccc(O)cc3O)nnc12` [Compound 4c, 1-(2,4-Dihydroxyphenyl)-[1,2,4]triazolo[4,3-a]quinoxalin-4(5H)-one], the melting point is over 300 °C. Moreover, the IC50 at pG-IB sPLA2 (setting [1]) is 14.8 ± 0.44 µM. Besides, the 50% inhibitory concentration (IC50) at hG-IIA sPLA2 (setting [2]) is 1.32 ± 0.16 µM. Moreover, the half-inhibitory concentration (IC50) at hG-V sPLA2 (setting [3]) came out at 1.05 ± 0.13 µM. The 50% inhibitory concentration (IC50) at hG-X sPLA2 (setting [4]) was found to be 0.61 ± 0.03 µM. In addition, the IC50 at hG-XIIA sPLA2 (setting [5]) was 0.91 ± 0.05 µM.
For the molecule `O=c1[nH]c2ccccc2n2c(-c3ccc(Cl)c(Cl)c3)nnc12` [Compound 4d, 1-(3,4-Dichlorophenyl)-[1,2,4]triazolo[4,3-a]quinoxalin-4(5H)-one], the IC50 came out at 14.5 ± 0.87 µM on pG-IB sPLA2 (setting [1]); 1.81 ± 0.04 µM on hG-IIA sPLA2 (setting [2]); 3.04 ± 0.57 µM on hG-V sPLA2 (setting [3]); 2.71 ± 0.07 µM at hG-X sPLA2 (setting [4]); 1.41 ± 0.07 µM at hG-XIIA sPLA2 (setting [5]).
Taken in the same sequence, the figures for `O=c1[nH]c2ccccc2n2c(-c3cccs3)nnc12` [Compound 4e, 1-(Thiophen-2-yl)-[1,2,4]triazolo[4,3-a]quinoxalin-4(5H)-one] were 16.8 ± 0.93 µM, 16.8 ± 0.41 µM, 18.6 ± 0.56 µM, 17.9 ± 0.94 µM and 18.6 ± 1.33 µM.
Turning to `COc1cccc(-c2nnc3c(=O)[nH]c4ccccc4n23)c1` [Compound 4f, 1-(3-Methoxyphenyl)-[1,2,4]triazolo[4,3-a]quinoxalin-4(5H)-one], the melting point lay within 286 to 288 °C. Also, the 50% inhibitory concentration (IC50) on pG-IB sPLA2 (setting [1]) worked out at 16 ± 1.71 µM. The half-maximal inhibitory concentration (IC50) on hG-IIA sPLA2 (setting [2]) came out at 17.1 ± 0.41 µM. For the same molecule, the IC50 at hG-V sPLA2 (setting [3]) is 15.8 ± 0.85 µM. For the same molecule, the concentration for half-maximal inhibition (IC50) on hG-X sPLA2 (setting [4]) worked out at 14.4 ± 0.52 µM. The IC50 at hG-XIIA sPLA2 (setting [5]) worked out at 15.8 ± 1.29 µM.
Take `CC1(C)CC[C@]2(C(=O)O)CC[C@]3(C)C(=CC[C@@H]4[C@@]5(C)CC[C@H](O)C(C)(C)[C@@H]5CC[C@]43C)[C@@H]2C1` [Oleanolic acid, reference compound]: the 50% inhibitory concentration (IC50) on hG-V sPLA2 (setting [3]) is 16.4 ± 1.53 µM.

These data come from PMC6009887, “New quinoxalinone inhibitors targeting secreted phospholipase A2 and α-glucosidase” (Journal of Enzyme Inhibition and Medicinal Chemistry, 2017).
